Among the data in patent publication US12404295B2, “(Hetero)aryl-methyl-thio-beta-D-galactopyranoside derivatives” (Idorsia Pharmaceuticals Ltd, priority 2019, dated 2025) are IC50 values, retold here.

For this test, the target named is human Gal-3 (hGal-3) (Homo sapiens (Human), UniProt P17931). Briefly: competitive binding assay: biotinylated hGal-3 binding to microplate-adsorbed asialofetuin (ASF). The protocol: If not explicitly mentioned otherwise, the inhibition data refer to the binding of biotinylated human Gal-3 (hGal-3).
Evaluation of Compound Inhibitory Activity (IC50)
The inhibitory activity of compounds is determined in competitive binding assays.
Briefly, compounds are serially diluted in DMSO (working dilutions).
Plates are incubated for 3 hours at 4° C., then washed with cold assay buffer (3×50 uL), incubated for 1 hour with 25 μL/well of a streptavidin-peroxidase solution (diluted in assay buffer to 80 ng/mL) at 4° C., followed by further washing steps with assay buffer (3×50 uL). Finally, 25 μL/well of ABTS substrate is added.
The calculated IC50 values may fluctuate depending on the daily assay performance. Fluctuations of this kind are known to those skilled in the art. IC50 values from several measurements are given as mean values.

Setting [1] is: Gal-3 inhibition, binding of biotinylated hGal-3 to ASF, mean values, read-out: IC50.
Setting [2] is: Table 11, read-out: IC50 (Gal-3 inhibition).
[3] abbreviates: Table 5, read-out: IC50 (Gal-3 inhibition).
The mark [4] stands for this setting: Table 14, read-out: IC50 (Gal-3 inhibition).

Read-outs that look alike come from different tables or passages of the source.

Chain of human Gal-3 (hGal-3) (P17931 whole entry): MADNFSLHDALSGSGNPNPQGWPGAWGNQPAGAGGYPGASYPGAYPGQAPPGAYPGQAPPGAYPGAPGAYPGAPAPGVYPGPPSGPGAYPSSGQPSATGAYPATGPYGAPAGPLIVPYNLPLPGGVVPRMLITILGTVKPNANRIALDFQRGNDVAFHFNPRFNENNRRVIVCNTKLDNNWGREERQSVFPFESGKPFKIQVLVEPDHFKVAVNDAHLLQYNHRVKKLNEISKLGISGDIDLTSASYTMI

Turning to `CC(C)Cc1c([C@@H](S[C@@H]2O[C@H](CO)[C@H](O)[C@H](n3cc(-c4cc(F)c(F)c(F)c4)nn3)[C@H]2O)C2(O)CCC(F)(F)CC2)noc1C1CC1` [2.44.131 R., (2S,3R,4S,5R,6R)-2-(((R)-(5-Cyclopropyl-4-isobutylisoxazol-3-yl)(4,4-difluoro-1-hydroxycyclohexyl)methyl)thio)-6-(hydroxymethyl)-4-(4-(3,4,5-trifluorophenyl)-1H-1,2,3-triazol-1-yl)tetrahydro-2H-pyran-3,5-diol], the IC50 under setting [1] amounted to 50 nM.

For `CO[C@@H]1[C@@H](n2cc(-c3cc(F)c(F)c(F)c3)nn2)[C@@H](O)[C@@H](CO)O[C@H]1S[C@H](c1ncccc1C)[C@@]1(O)CCOC(C)(C)C1` [Example 2.43.126RR.I., (2R,3R,4S,5R,6S)-6-(((R)-((R)-4-Hydroxy-2,2-dimethyltetrahydro-2H-pyran-4-yl)(3-methylpyridin-2-yl)methyl)thio)-2-(hydroxymethyl)-5-methoxy-4-(4-(3,4,5-trifluorophenyl)-1H-1,2,3-triazol-1-yl)tetrahydro-2H-pyran-3-ol], under setting [2], the IC50 turned out to be 730 nM.

Turning to `OC[C@H]1O[C@@H](S[C@@H](c2ccccc2Cl)C2(O)CCC(F)(F)CC2)[C@H](O)[C@@H](n2cc(-c3cc(F)c(F)c(F)c3)nn2)[C@H]1O` [Example 2.44.111S, (2S,3R,4S,5R,6R)-2-(((S)-(2-Chlorophenyl)(4,4-difluoro-1-hydroxycyclohexyl)methyl)thio)-6-(hydroxymethyl)-4-(4-(3,4,5-trifluorophenyl)-1H-1,2,3-triazol-1-yl)tetrahydro-2H-pyran-3,5-diol], the IC50 under setting [3] stood at 18400 nM.

Turning to `CS(=O)(=O)N1CC(O)([C@@H](S[C@@H]2O[C@H](CO)[C@H](O)[C@H](n3cc(-c4cc(F)c(F)c(F)c4)nn3)[C@H]2O)c2ccccc2C(F)(F)F)C1` [Example 2..57.112S., (2S,3R,4S,5R,6R)-2-(((S)-(3-Hydroxy-1-(methylsulfonyl)azetidin-3-yl)(2-(trifluoromethyl)phenyl)methyl)thio)-6-(hydroxymethyl)-4-(4-(3,4,5-trifluorophenyl)-1H-1,2,3-triazol-1-yl)tetrahydro-2H-pyran-3,5-diol], the IC50 under setting [1] worked out at 5800 nM.

Turning to `CO[C@@H]1[C@@H](n2cc(-c3ccc(F)c(F)c3F)nn2)[C@@H](O)[C@@H](CO)O[C@H]1SC(c1ncccc1C)C1(O)CCC(F)(F)CC1` (stereo partly drawn) [Example 21.44.126.I., (2R,3R,4S,5R,6S)-6-(((4,4-Difluoro-1-hydroxycyclohexyl)(3-methylpyridin-2-yl)methyl)thio)-2-(hydroxymethyl)-5-methoxy-4-(4-(2,3,4-trifluorophenyl)-1H-1,2,3-triazol-1-yl)tetrahydro-2H-pyran-3-ol], under setting [4], the IC50 came to 60 nM.

Regarding `CO[C@@H]1[C@@H](n2cc(-c3cc(F)c(F)c(F)c3)nn2)[C@@H](O)[C@@H](CO)O[C@H]1SC(c1ncccc1C)C1(O)CCC2(CCOCC2)CC1` (stereo partly drawn) [Example 2.72.126.I, 9-((((2S,3R,4S,5R,6R)-5-Hydroxy-6-(hydroxymethyl)-3-methoxy-4-(4-(3,4,5-trifluorophenyl)-1H-1,2,3-triazol-1-yl)tetrahydro-2H-pyran-2-yl)thio)(3-methylpyridin-2-yl)methyl)-3-oxaspiro[5.5]undecan-9-ol], the IC50 under setting [2] came to 130 nM.

Take `O=C(NC1CC1)N1CC(O)(C(S[C@@H]2O[C@H](CO)[C@H](O)[C@H](n3cc(-c4cc(F)c(F)c(F)c4)nn3)[C@H]2O)c2ccccc2C(F)(F)F)C1` (stereo partly drawn) [Example 2..59.11.2, N-Cyclopropyl-3-((((2S,3R,4S,5R,6R)-3,5-dihydroxy-6-(hydroxymethyl)-4-(4-(3,4,5-trifluorophenyl)-1H-1,2,3-triazol-1-yl)tetrahydro-2H-pyran-2-yl)thio)(2-(trifluoromethyl)phenyl)methyl)-3-hydroxyazetidine-1-carboxamide]: under setting [1], the IC50 came to 290 nM.

Turning to `CO[C@@H]1[C@@H](n2cc(-c3cnc(F)c(C)c3)nn2)[C@@H](O)[C@@H](CO)O[C@H]1SC(c1ncccc1C)C1(O)CCC(F)(F)CC1` (stereo partly drawn) [Example 24.44.126.I., (2R,3R,4S,5R,6S)-6-(((4,4-Difluoro-1-hydroxycyclohexyl)(3-methylpyridin-2-yl)methyl)thio)-4-(4-(6-fluoro-5-methylpyridin-3-yl)-1H-1,2,3-triazol-1-yl)-2-(hydroxymethyl)-5-methoxytetrahydro-2H-pyran-3-ol], under setting [4], the half-inhibitory concentration (IC50) is 330 nM.

With `OC[C@H](S[C@@H]1O[C@H](CO)[C@H](O)[C@H](n2cc(-c3cc(F)c(F)c(F)c3)nn2)[C@H]1O)c1ccccc1` [Example 2.30.100R., (2S,3R,4S,5R,6R)-2-(((R)-2-Hydroxy-1-phenylethyl)thio)-6-(hydroxymethyl)-4-(4-(3,4,5-trifluorophenyl)-1H-1,2,3-triazol-1-yl)tetrahydro-2H-pyran-3,5-diol], the IC50 under setting [1] is 800 nM.

As to `CO[C@@H]1[C@@H](n2cc(-c3cc(F)c(F)c(F)c3)nn2)[C@@H](O)[C@@H](CO)O[C@H]1S[C@H](c1ccccc1C(F)(F)F)[C@]1(O)CCOC(C)(C)C1` [Example 2.43.112RS.I, (2R,3R,4S,5R,6S)-6-(((R)-((S)-4-Hydroxy-2,2-dimethyltetrahydro-2H-pyran-4-yl)(2-(trifluoromethyl)phenyl)methyl)thio)-2-(hydroxymethyl)-5-methoxy-4-(4-(3,4,5-trifluorophenyl)-1H-1,2,3-triazol-1-yl)tetrahydro-2H-pyran-3-ol], under “Table 9, 2-OMe-Gal inhibitors, read-out: IC50 (Gal-3 inhibition)”, the IC50 is 140 nM.

Turning to `CS(=O)(=O)N1CC(O)([C@H](S[C@@H]2O[C@H](CO)[C@H](O)[C@H](n3cc(-c4cc(F)c(F)c(F)c4)nn3)[C@H]2O)c2ccccc2C(F)(F)F)C1` [Example 2..57.112R., (2S,3R,4S,5R,6R)-2-(((R)-(3-Hydroxy-1-(methylsulfonyl)azetidin-3-yl)(2-(trifluoromethyl)phenyl)methyl)thio)-6-(hydroxymethyl)-4-(4-(3,4,5-trifluorophenyl)-1H-1,2,3-triazol-1-yl)tetrahydro-2H-pyran-3,5-diol], the IC50 under setting [1] was 170 nM.

With `CO[C@@H]1[C@@H](n2cc(-c3cc(F)c(F)c(F)c3)nn2)[C@@H](O)[C@@H](CO)O[C@H]1S[C@@H](c1ncccc1C)[C@]1(O)CCOC(C)(C)C1` [Example 2.43.126SS.I., (2R,3R,4S,5R,6S)-6-(((S)-((S)-4-Hydroxy-2,2-dimethyltetrahydro-2H-pyran-4-yl)(3-methylpyridin-2-yl)methyl)thio)-2-(hydroxymethyl)-5-methoxy-4-(4-(3,4,5-trifluorophenyl)-1H-1,2,3-triazol-1-yl)tetrahydro-2H-pyran-3-ol], the IC50 under setting [2] was found to be 1900 nM.

`CS(=O)(=O)N1CCC(O)(C(S[C@@H]2O[C@H](CO)[C@H](O)[C@H](n3cc(-c4cc(F)c(F)c(F)c4)nn3)[C@H]2O)c2ccccc2C(F)(F)F)CC1` (stereo partly drawn) [Example 2.47.112., (2S,3R,4S,5R,6R)-2-(((4-Hydroxy-1-(methylsulfonyl)piperidin-4-yl)(2-(trifluoromethyl)phenyl)methyl)thio)-6-(hydroxymethyl)-4-(4-(3,4,5-trifluorophenyl)-1H-1,2,3-triazol-1-yl)tetrahydro-2H-pyran-3,5-diol]: the IC50 under setting [1] came out at 70 nM.

`OC[C@H]1O[C@@H](S[C@H](c2ccccc2Cl)C2(O)CCC(F)(F)CC2)[C@H](O)[C@@H](n2cc(-c3cc(F)c(F)c(F)c3)nn2)[C@H]1O` [Example 2.44.111R, (2S,3R,4S,5R,6R)-2-(((R)-(2-Chlorophenyl)(4,4-difluoro-1-hydroxycyclohexyl)methyl)thio)-6-(hydroxymethyl)-4-(4-(3,4,5-trifluorophenyl)-1H-1,2,3-triazol-1-yl)tetrahydro-2H-pyran-3,5-diol]: the IC50 under setting [3] was found to be 90 nM.

The IC50 is the concentration needed to halve the response being measured.
